Assay results taken from publication PMC9120017, “Inhibition mechanism of the chloride channel TMEM16A by the pore blocker 1PBC” (Nature Communications, 2022).
Read-outs that look alike come from different tables or passages of the source.

Target: T1, mouse TMEM16A mutant V599A (Mus musculus, UniProt Q8BHY3, V599A)
T1 construct: expressed in transfected cells; host or cells: HEK293T
T1 sequence (Q8BHY3 1-960 V599A): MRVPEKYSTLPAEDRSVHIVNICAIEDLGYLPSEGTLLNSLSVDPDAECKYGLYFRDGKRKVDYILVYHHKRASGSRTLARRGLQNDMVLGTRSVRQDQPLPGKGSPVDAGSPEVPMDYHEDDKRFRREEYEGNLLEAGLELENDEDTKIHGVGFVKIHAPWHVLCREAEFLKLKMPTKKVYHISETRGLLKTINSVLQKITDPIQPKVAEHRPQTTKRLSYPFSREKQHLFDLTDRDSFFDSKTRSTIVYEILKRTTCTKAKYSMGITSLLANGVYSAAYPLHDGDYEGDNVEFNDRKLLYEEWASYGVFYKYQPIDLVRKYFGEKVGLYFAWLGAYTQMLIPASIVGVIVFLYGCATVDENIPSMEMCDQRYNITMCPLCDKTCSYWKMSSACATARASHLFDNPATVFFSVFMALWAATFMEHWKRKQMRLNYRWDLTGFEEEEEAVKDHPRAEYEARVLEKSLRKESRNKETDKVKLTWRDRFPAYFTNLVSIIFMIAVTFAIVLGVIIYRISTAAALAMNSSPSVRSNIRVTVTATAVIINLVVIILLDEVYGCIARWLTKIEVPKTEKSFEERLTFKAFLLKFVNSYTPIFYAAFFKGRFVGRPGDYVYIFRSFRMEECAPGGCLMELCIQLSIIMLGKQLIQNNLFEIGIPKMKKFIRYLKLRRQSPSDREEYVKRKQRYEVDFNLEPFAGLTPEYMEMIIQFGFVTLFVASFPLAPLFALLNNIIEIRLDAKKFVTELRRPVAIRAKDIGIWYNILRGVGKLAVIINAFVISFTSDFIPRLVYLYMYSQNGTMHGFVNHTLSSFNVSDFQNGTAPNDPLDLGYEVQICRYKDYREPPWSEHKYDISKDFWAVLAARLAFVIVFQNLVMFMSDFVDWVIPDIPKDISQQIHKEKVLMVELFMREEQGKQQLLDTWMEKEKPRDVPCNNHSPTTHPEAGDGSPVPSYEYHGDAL
Experiment: Inside-out patch recording of 1PBC block, mutant V599A
Type: cell-based
Settings: for remaining activity at 3 µM: 1PBC conc 3; for remaining activity at 3 µM / remaining activity at 10 µM / remaining activity at 30 µM / remaining activity at 100 µM: read-out: relative current in 1PBC (avr); for remaining activity at 10 µM: 1PBC conc 10; for remaining activity at 30 µM: 1PBC conc 30; for remaining activity at 100 µM: 1PBC conc 100
Experimental: HEK293T cells (ATCC CRL-1573) were maintained in Dulbecco’s modified Eagle’s medium (DMEM; Sigma-Aldrich) supplemented with 10 U ml^−1 penicillin, 0.1 mg ml^−1 streptomycin (Sigma-Aldrich), 2 mM L-glutamine (Sigma-Aldrich), and 10% FBS (Sigma-Aldrich) in a humidified atmosphere containing 5% CO2 at 37 °C. HEK293S GnTI^− cells (ATCC CRL-3022) were maintained in HyClone HyCell TransFx-H medium (GE Healthcare) supplemented with 10 U ml^−1 penicillin, 0.1 mg ml^−1 streptomycin, 4 mM L-glutamine, 0.15% poloxamer 188 (Sigma-Aldrich), and 1% FBS in an atmosphere containing 5% CO2 at 185 rpm at 37 °C. The ac splice variant of mouse TMEM16A (UniProt ID: Q8BHY3), mouse TMEM16B (UniProt ID: Q8CFW1), or mouse TMEM16F (UniProt ID: Q6P9J9) bearing a 3C cleavage site, a Venus YFP, a Myc tag, and a Streptavidin-binding peptide (SBP) downstream of the open reading frame in a modified pcDNA3.1 vector (Invitrogen) were used as described previously[21],[31]. Mutations were introduced using a modified QuikChange method[58] and were verified by sequencing.
HEK293T cells were transfected with 3–4 μg DNA per 6 cm Petri dish using the calcium phosphate co-precipitation method and were used within 24–96 h after transfection. Recordings were performed on inside-out patches excised from HEK293T cells expressing the construct of interest. Patch pipettes were pulled from borosilicate glass capillaries (O.D. 1.5 mm, I.D. 0.86 mm, Sutter Instrument) and were fire-polished with a microforge (Narishige) before use. Pipette resistance was typically 3–8 MΩ when filled with the recording solutions detailed below. Seal resistance was typically 4 GΩ or higher. Voltage-clamp recordings were made using Axopatch 200B, Digidata 1550, and Clampex 10.7 (Molecular Devices). Analog signals were filtered with the in-built 4-pole Bessel filter at 10 kHz and were digitized at 20 kHz. Solution exchange was achieved using a gravity-fed system through a theta glass pipette mounted on an ultra-fast piezo-driven stepper (Siskiyou). […] All recordings were performed at 20 °C.
A symmetrical ionic condition was used throughout. Stock solution with Ca^2+-EGTA contained 150 mM NaCl, 5.99 mM Ca(OH)2, 5 mM EGTA, and 10 mM HEPES at pH 7.40. Stock solution with EGTA contained 150 mM NaCl, 5 mM EGTA, and 10 mM HEPES at pH 7.40. Free Ca^2+ concentrations were adjusted by mixing the stock solutions at the required ratios calculated using the WEBMAXC program (http://web.stanford.edu/~cpatton/webmaxcS.htm). Patch pipettes were filled with the stock solution with Ca^2+-EGTA, which has a free Ca^2+ concentration of 1 mM. 1PBC (ChemBridge) stock was reconstituted in anhydrous DMSO (Sigma-Aldrich) at 100 mM and stored at −20 °C. Working solutions with 1PBC were prepared by serial dilution. Unless otherwise stated, experiments were performed at a saturating Ca^2+ concentration as shown in Supplementary Table 1 and the primary data were corrected for current rundown as described previously[21],[25].
Concentration-response relations, obtained from the ratio of the I-V plots before and after the application of the blocker, were fitted to the Hill equation,1 I/Imax=1/1+IC50/[blocker]^h where I/Imax is the normalized current responses, IC50 defines the concentration at which inhibition is at its half-maximum, and h is the Hill coefficient.

N#Cc1c(C(F)(F)F)cc(O)n2c1nc1ccccc12 [1PBC]
IC50 (-20 mV, 15 µM Ca2+): 79.2 µM | remaining activity at 3 µM (-20 mV): 93.7% | remaining activity at 10 µM (-20 mV): 88.9% | remaining activity at 30 µM (-20 mV): 74.6% | remaining activity at 100 µM (-20 mV): 42.8% | IC50 (-40 mV, 15 µM Ca2+): 87.5 µM | remaining activity at 3 µM (-40 mV): 93.7% | remaining activity at 10 µM (-40 mV): 89.2% | remaining activity at 30 µM (-40 mV): 76.8% | remaining activity at 100 µM (-40 mV): 45.5% | IC50 (-60 mV, 15 µM Ca2+): 97.2 µM | remaining activity at 3 µM (-60 mV): 94.2% | remaining activity at 10 µM (-60 mV): 90.8% | remaining activity at 30 µM (-60 mV): 77.7% | remaining activity at 100 µM (-60 mV): 48.6% | IC50 (-80 mV, 15 µM Ca2+): 104 µM | remaining activity at 3 µM (-80 mV): 94.9% | remaining activity at 10 µM (-80 mV): 91.7% | remaining activity at 30 µM (-80 mV): 78.1% | remaining activity at 100 µM (-80 mV): 50.8% | IC50 (-100 mV, 15 µM Ca2+): 109 µM | remaining activity at 3 µM (-100 mV): 94.9% | remaining activity at 10 µM (-100 mV): 91.7% | remaining activity at 30 µM (-100 mV): 78.5% | remaining activity at 100 µM (-100 mV): 52.3% | IC50 (-120 mV, 15 µM Ca2+): 115 µM | remaining activity at 3 µM (-120 mV): 95.9% | remaining activity at 10 µM (-120 mV): 93.5% | remaining activity at 30 µM (-120 mV): 79.4% | remaining activity at 100 µM (-120 mV): 53.3% | IC50 (-140 mV, 15 µM Ca2+): 119 µM | remaining activity at 3 µM (-140 mV): 96% | remaining activity at 10 µM (-140 mV): 93.2% | remaining activity at 30 µM (-140 mV): 79.3% | remaining activity at 100 µM (-140 mV): 54.7% | IC50 (V599A, V 0 mV): 69.5 µM | IC50 (V599A, V 20 mV): 61.3 µM | IC50 (V599A, V 40 mV): 55.5 µM | IC50 (V599A, V 60 mV): 48.9 µM | IC50 (V599A, V 80 mV): 45.8 µM | IC50 (V599A, V 100 mV): 45 µM | IC50 (V599A, V 120 mV): 45.1 µM | IC50 (V599A, V 140 mV): 48.5 µM | IC50 (V599A, V -20 mV): 79.2 µM | IC50 (V599A, V -40 mV): 87.5 µM | IC50 (V599A, V -60 mV): 97.2 µM | IC50 (V599A, V -80 mV): 104 µM | IC50 (V599A, V -100 mV): 109 µM | IC50 (V599A, V -120 mV): 115 µM | IC50 (V599A, V -140 mV): 119 µM
